The test system of the test is H9-derived spinal cord NSCs. The test is described as follows: Long-term maintenance and expansion of spinal cord NSCs in neural maintenance media. The format is cell-based, human. The note with it: for effect of omission from maintenance media on cultures: omission of the component, data not shown.

`CNC1CCC(N(Cc2cccc(-c3ccncc3)c2)C(=O)c2sc3c(F)ccc(F)c3c2Cl)CC1` (stereo not drawn) [Hh-Ag1.5]: the “effect of omission from maintenance media on cultures” value was “failure to sustain cultures over time”. Also, for the setting “18 days after neural induction”, the “effect on dorso-ventral polarity of induced cells (NKX6.1, PAX6)” value is given as “disrupted dorso-ventral polarity”.
For `Cc1c[nH]c(-c2cnc(NCCNc3ccc(C#N)cn3)nc2-c2ccc(Cl)cc2Cl)n1` [CHIR], the “effect of omission from maintenance media on cultures” value is on record as “failure to sustain cultures over time”.
